Values of other authors as cited in publication PMC8875809, “Comparative venomic profiles of three spiders of the genus Phoneutria” (The Journal of Venomous Animals and Toxins Including …, 2022).
Entries after “also recorded” stand apart in the source; their conditions may differ.

Legend:
sodium channels = details: ref [78]
Source text: PnTx2-6 (MW 5288 Da) contains 48 amino acids, of which 10 are cysteine residues. […] Due to such effects on penile erection, PnTx2-6 has shown good perspectives for clinical application on erectile dysfunction treatment. […] Although we have not assayed Tx2-6 isoforms from P. eickstedtae (Pe-V) and P. pertyi (Pp- V), we believe that them has similar effects on sodium channels like PnTx2-6 isoform and similar results would be expected, because these toxins are homologous. The species P. eickstedtae and P. pertyi are rarer spiders. In addition, since Tx1 is the most abundant toxin, only this molecule was used for electrophysiology assays. We believe that our data, as they are, already bring the news to arouse ...

penile erection = test system: penile erection
Source text: PhTx2 toxins inhibit sodium channel inactivation. These toxins are the main responsible for the strongest neurotoxic effects of venom. […] These toxins have been explored as models for the development of a potential drug for the treatment of erectile dysfunction. || PnTx2-6 (MW 5288 Da) contains 48 amino acids, of which 10 are cysteine residues. […] Due to such effects on penile erection, PnTx2-6 has shown good perspectives for clinical application on erectile dysfunction treatment. PnTx2-6 modulates the nitric oxide (NO)/cyclic GMP pathwa ...

[1] = test system: nitric oxide (NO)/cyclic GMP pathway; details: ref [24],[35],[36]
Source text: PnTx2-6 (MW 5288 Da) contains 48 amino acids, of which 10 are cysteine residues. […] Due to such effects on penile erection, PnTx2-6 has shown good perspectives for clinical application on erectile dysfunction treatment. PnTx2-6 modulates the nitric oxide (NO)/cyclic GMP pathwa ...

## PnTx2-6: contains 48 amino acids, of which 10 are cysteine residues; P. nigriventer toxin (P29425) (ATCAGQDQPCKETCDCCGERGECVCGGPCICRQGYFWIAWYKLANCKK; UniProt P29425 35-82, looked up)
Sodium channels
  effect on sodium channel inactivation: modifies the kinetics of sodium channel inactivation; also recorded: decreases sodium channel inactivation
  voltage dependence of activation / sodium influx: shifting the voltage dependence of activation towards more hyperpolarized potentials, thus increasing sodium influx
Penile erection; ref [21],[24]
  priapism: found to induce priapism
Penile erection; ref [29]
  penile erection in envenomation: responsible for the penile erection
[1]
  NO release in corpus cavernosum tissue: increased release of NO in the corpus cavernosum tissue
